Source: ChEMBL document CHEMBL2073970, “Expression cloning and functional characterization of the kidney cortex high-affinity proton-coupled peptide transporter” (Proc Natl Acad Sci U S A, 1996)

Molecular target: T1, Solute carrier family 15 member 2 (Rattus norvegicus) (UniProt Q63424)
T1 sequence (whole entry): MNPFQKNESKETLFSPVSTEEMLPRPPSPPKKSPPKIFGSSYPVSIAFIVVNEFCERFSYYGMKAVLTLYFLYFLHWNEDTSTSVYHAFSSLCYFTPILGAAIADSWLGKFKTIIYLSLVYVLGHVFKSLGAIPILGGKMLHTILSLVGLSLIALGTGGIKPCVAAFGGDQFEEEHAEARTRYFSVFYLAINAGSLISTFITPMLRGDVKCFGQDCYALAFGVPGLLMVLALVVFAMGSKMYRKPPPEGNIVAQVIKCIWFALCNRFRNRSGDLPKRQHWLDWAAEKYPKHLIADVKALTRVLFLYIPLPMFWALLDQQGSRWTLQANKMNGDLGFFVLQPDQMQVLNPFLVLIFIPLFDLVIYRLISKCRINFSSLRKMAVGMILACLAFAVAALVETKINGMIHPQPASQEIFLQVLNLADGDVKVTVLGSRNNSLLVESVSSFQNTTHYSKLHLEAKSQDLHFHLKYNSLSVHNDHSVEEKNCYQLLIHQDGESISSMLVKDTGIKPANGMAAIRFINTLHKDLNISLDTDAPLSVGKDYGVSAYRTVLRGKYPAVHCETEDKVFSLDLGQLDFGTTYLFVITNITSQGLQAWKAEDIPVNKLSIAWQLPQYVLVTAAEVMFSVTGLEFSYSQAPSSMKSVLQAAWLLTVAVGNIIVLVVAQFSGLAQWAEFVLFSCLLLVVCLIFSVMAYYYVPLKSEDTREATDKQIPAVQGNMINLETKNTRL
Test: TP_TRANSPORTER: inhibition of Cefadroxil uptake (Cefadroxil: 25 uM, Loracarbef: 5000uM) in Xenopus laevis oocytes
Type: functional, cell-based
Conditions: Oocyte

In the case of `N[C@@H](C(=O)N[C@@H]1C(=O)N2C(C(=O)O)=C(Cl)CC[C@H]12)c1ccccc1`, the Activity was “inhibitor [15% (at a rough estimate) of control]”.
